These results are taken from patent US20210115104A1, “AMYLIN ANALOGUES” (Zealand Pharma A/S, priority 2015, published 2021).

A short description of data set [1]: Assessment of chemical stability (RP-HPLC normalized purity). Format: physicochemical. As to conditions: 7 days, 40° C., Table 1; for Normalized purity after 7 days, 40° C., pH 4: pH 4, 0.2 mg/ml; for Normalized purity after 7 days, 40° C., pH 6: pH 6, 0.2 mg/ml; for Normalized purity after 7 days, 40° C., pH 9: pH 9, 0.2 mg/ml; for Normalized purity after 7 days, 40° C., pH 7.5: pH 7.5, 0.2 mg/ml. A digest of the protocol: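 Purity after 7 days at 40° C is expressed relative to T=0 (set to 100) for each pH. Samples at 0.2 mg/ml, pH 4, 6, 7.5 or 9, analyzed by RP-HPLC with UV 220 nm on C8 (ammonium formate) or C18 (TFA) gradients.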

A short description of data set [2]: Pharmacokinetic (PK) profiling in rats. As to conditions: Sprague Dawley male rats, single sc 30 nmol/kg. Also on record: CI/F (apparent clearance values): unit not given here. Format: in vivo, rat. As to the method:
Sprague Dawley male rats were given a single subcutaneous (sc) bolus of each peptide to be tested, as specified below. 30 nmol/kg doses of compound were administered. Blood samples were drawn from the tail vein prior to dosing and at 24, 48, 72, 96 and 168 hours after dosing. Blood samples were taken from two rats at each time point, and only 2 blood samples were drawn from each rat, i.e. […] were used for each compound. The rats were euthanized immediately after the last blood sampling by concussion and cervical dislocation.
The dosing vehicle used for each test peptide was a mannitol-containing histidine buffer (pH 7.0). Plasma samples were analyzed after precipitation with ethanol by liquid chromatography mass spectrometry (LC-MS/MS). Mean plasma concentrations were used for calculation of the pharmacokinetic parameters using the non-compartmental approach in Phoenix WinNonlin 6.3.
Plasma terminal elimination half-life (t1/2) was determined as ln(2)/λz, where λz is the magnitude of the slope of the log linear regression of the log concentration versus time profile during the terminal phase. Apparent clearance (CL/F) was determined as dose/AUCinf (sc), where AUCinf is the area under the plasma concentration vs. time curve extrapolated to infinity (AUCinf=AUClast+Clast/λz, where Clast is the last observed plasma concentration).

The nature of data set [3]: Assessment of physical stability (Thioflavin T fibrillation). The class given is physicochemical. Also on record: key: FND = fibrillation not detected; FD = fibrillation detected. The settings on record: 1 mg/ml, 40° C., ThT; for Fibrillation pH 4.0 (Ac): 50 mM acetate buffer pH 4.0, 96 hours; for Fibrillation pH 7.0 (His): 50 mM histidine buffer pH 7.0, 96 hours; for Fibrillation pH 7.0 (Phos.): 50 mM phosphate buffer pH 7.0, 96 hours. In short, it runs like this: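 Fibrillation lag-time, in hours, taken where regressions of the initial stable phase and the growth phase intersect. ThT (40 μM) fluorescence monitored at 40 °C for 96 h, 10-min reads each preceded by 300 s mixing. Peptide at 1 mg/ml in 50 mM buffers: phosphate or histidine pH 7.0, acetate pH 4.0.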

*1 amine or outer side, *2 acyl side, *3 side chain or, on linkers, in order; H or OH if unused. Where a SMILES comes first, the peptide text is derived from it. Bridges are numbered along the chain shown (N, C = ends). [ ]: non-standard residue; d: D form. The star is where a group is joined. C20 diacid = O=C(O)CCCCCCCCCCCCCCCCCCC(=O)*; γGlu = O=C(O)[C@H](CCC(=O)[*:2])N[*:1]; Hyp = O=C(O)[C@@H]1C[C@@H](O)CN1; NMeI = CC[C@H](C)[C@H](NC)C(=O)O; Sar = CNCC(=O)O

As for `CC[C@H](C)[C@@H](C(=O)N[C@@H](CC(C)C)C(=O)N[C@@H](CO)C(=O)N[C@@H](CO)C(=O)N[C@H](C(=O)N[C@@H](CCC(=O)O)C(=O)N[C@H](C(=O)NCC(=O)N[C@@H](CO)C(=O)N[C@@H](CC(N)=O)C(=O)N[C@H](C(=O)N1C[C@H](O)C[C@H]1C(N)=O)[C@@H](C)O)C(C)C)[C@@H](C)O)N(C)C(=O)[C@H](C)NC(=O)CN(C)C(=O)[C@H](Cc1ccccc1)NC(=O)[C@H](CO)NC(=O)[C@H](CO)NC(=O)[C@H](CCCNC(=N)N)NC(=O)[C@H](CC(N)=O)NC(=O)[C@H](CC(C)C)NC(=O)[C@H](Cc1ccccc1)NC(=O)[C@H](Cc1c[nH]cn1)NC(=O)[C@H](C)NC(=O)[C@H](CC(C)C)NC(=O)[C@H](CCCNC(=N)N)NC(=O)[C@H](CCC(=O)O)NC(=O)[C@@H](NC(=O)[C@H](C)NC(=O)[C@@H]1CSSC[C@H](NC(=O)[C@H](CCCNC(=N)N)NC(=O)CC[C@H](NC(=O)CCCCCCCCCCCCCCCCCCC(=O)O)C(=O)O)C(=O)NCC(=O)N[C@@H]([C@@H](C)O)C(=O)N[C@@H](C)C(=O)N[C@@H]([C@@H](C)O)C(=O)N1)[C@@H](C)O` [Compound 6, [19CD]-isoGlu-R-C( )-GTAT-C( )-ATERLAHFLNRSSF-Gly(Me)-A-Ile(Me)-LSSTEVGSNT-Hyp-NH2] ({C20 diacid-γGlu}-RCGTATCATERLAHFLNRSSF[Sar]A[NMeI]LSSTEVGSNT[Hyp]-NH2; disulfide 2-7), in data set [1], the “Normalized purity after 7 days, 40° C., pH 4” value (shortened to “Normalized purity … pH 4”) was “A (A = >90%)”; the “Normalized purity after 7 days, 40° C., pH 6” value (“Normalized purity … pH 6” for short) is given as “B (B = 70-90%)”; the “Normalized purity after 7 days, 40° C., pH 9” value (“Normalized purity … pH 9” below) is “B (B = 70-90%)”. Besides, the “CI/F (apparent clearance values)” value in data set [2] is recorded as 0.0069. Moreover, in data set [3], the “Fibrillation pH 4.0 (Ac)” value is “FND”, the “Fibrillation pH 7.0 (His)” value is “FND” and the “Fibrillation pH 7.0 (Phos.)” value was “FND”.
For `CC[C@H](C)[C@@H](C(=O)N[C@@H](CC(C)C)C(=O)N[C@@H](CO)C(=O)N[C@@H](CO)C(=O)N[C@H](C(=O)N[C@@H](CCC(=O)O)C(=O)N[C@H](C(=O)NCC(=O)N[C@@H](CO)C(=O)N[C@@H](CC(N)=O)C(=O)N[C@H](C(=O)N1C[C@H](O)C[C@H]1C(N)=O)[C@@H](C)O)C(C)C)[C@@H](C)O)N(C)C(=O)[C@H](C)NC(=O)CN(C)C(=O)[C@H](Cc1ccccc1)NC(=O)[C@H](CO)NC(=O)[C@H](CO)NC(=O)[C@H](CCCNC(=N)N)NC(=O)[C@H](CCC(N)=O)NC(=O)[C@H](CC(C)C)NC(=O)[C@H](Cc1ccccc1)NC(=O)[C@H](Cc1c[nH]cn1)NC(=O)[C@H](C)NC(=O)[C@H](CC(C)C)NC(=O)[C@H](CCCNC(=N)N)NC(=O)[C@H](CCC(=O)O)NC(=O)[C@@H](NC(=O)[C@H](C)NC(=O)[C@@H]1CSSC[C@H](NC(=O)[C@H](CCCNC(=N)N)NC(=O)CC[C@H](NC(=O)CCCCCCCCCCCCCCCCCCC(=O)O)C(=O)O)C(=O)NCC(=O)N[C@@H]([C@@H](C)O)C(=O)N[C@@H](C)C(=O)N[C@@H]([C@@H](C)O)C(=O)N1)[C@@H](C)O` [Compound 7, [19CD]-isoGlu-R-C( )-GTAT-C( )-ATERLAHFLQRSSF-Gly(Me)-A-Ile(Me)-LSSTEVGSNT-Hyp-NH2] ({C20 diacid-γGlu}-RCGTATCATERLAHFLQRSSF[Sar]A[NMeI]LSSTEVGSNT[Hyp]-NH2; disulfide 2-7), in data set [1], the “Normalized purity … pH 4” value is given as “A (A = >90%)”; the “Normalized purity … pH 6” value is on record as “A (A = >90%)”; the “Normalized purity after 7 days, 40° C., pH 7.5” value (shortened to “Normalized purity … pH 7.5”) is “A (A = >90%)”; the “Normalized purity … pH 9” value was “A (A = >90%)”. In data set [2], the “CI/F (apparent clearance values)” value is given as 0.0087. For the same compound, in data set [3], the “Fibrillation pH 4.0 (Ac)” value is given as “FND”, the “Fibrillation pH 7.0 (His)” value was “FND” and the “Fibrillation pH 7.0 (Phos.)” value is reported as “FND”.
As for `CC[C@H](C)[C@@H](C(=O)N[C@@H](CC(C)C)C(=O)N[C@@H](CO)C(=O)N[C@@H](CO)C(=O)N[C@H](C(=O)N[C@@H](CCC(=O)O)C(=O)N[C@H](C(=O)NCC(=O)N[C@@H](CO)C(=O)N[C@@H](CC(N)=O)C(=O)N[C@H](C(=O)N1CCC[C@H]1C(N)=O)[C@@H](C)O)C(C)C)[C@@H](C)O)N(C)C(=O)[C@H](C)NC(=O)CN(C)C(=O)[C@H](Cc1ccccc1)NC(=O)[C@H](CO)NC(=O)[C@H](CO)NC(=O)[C@H](CCCNC(=N)N)NC(=O)[C@H](Cc1c[nH]cn1)NC(=O)[C@H](CC(C)C)NC(=O)[C@H](Cc1ccccc1)NC(=O)[C@H](Cc1c[nH]cn1)NC(=O)[C@H](C)NC(=O)[C@H](CC(C)C)NC(=O)[C@H](CCCNC(=N)N)NC(=O)[C@H](CCC(=O)O)NC(=O)[C@@H](NC(=O)[C@H](C)NC(=O)[C@@H]1CSSC[C@H](NC(=O)[C@H](CCCNC(=N)N)NC(=O)CC[C@H](NC(=O)CCCCCCCCCCCCCCCCCCC(=O)O)C(=O)O)C(=O)NCC(=O)N[C@@H]([C@@H](C)O)C(=O)N[C@@H](C)C(=O)N[C@@H]([C@@H](C)O)C(=O)N1)[C@@H](C)O` [Compound 15, [19CD]-isoGlu-R-C( )-GTAT-C( )-ATERLAHFLHRSSF-Gly(Me)-A-Ile(Me)-LSSTEVGSNTP-NH2] ({C20 diacid-γGlu}-RCGTATCATERLAHFLHRSSF[Sar]A[NMeI]LSSTEVGSNTP-NH2; disulfide 2-7), in data set [1], the “Normalized purity … pH 4” value is reported as “A (A = >90%)”; the “Normalized purity … pH 6” value is recorded as “B (B = 70-90%)”; the “Normalized purity … pH 7.5” value is “B (B = 70-90%)”; the “Normalized purity … pH 9” value is “B (B = 70-90%)”. Moreover, the “CI/F (apparent clearance values)” value in data set [2] stood at 0.0116. In data set [3], the “Fibrillation pH 4.0 (Ac)” value was “FND”, the “Fibrillation pH 7.0 (His)” value is recorded as “FD” and the “Fibrillation pH 7.0 (Phos.)” value is on record as “FND”.
On to `CC[C@H](C)[C@@H](C(=O)N[C@@H](CC(C)C)C(=O)N[C@@H](CO)C(=O)N[C@@H](CO)C(=O)N[C@H](C(=O)N[C@@H](CCC(=O)O)C(=O)N[C@H](C(=O)NCC(=O)N[C@@H](CO)C(=O)N[C@@H](CO)C(=O)N[C@H](C(=O)N1C[C@H](O)C[C@H]1C(N)=O)[C@@H](C)O)C(C)C)[C@@H](C)O)N(C)C(=O)[C@H](C)NC(=O)CN(C)C(=O)[C@H](Cc1ccccc1)NC(=O)[C@H](CO)NC(=O)[C@H](CO)NC(=O)[C@H](CCCNC(=N)N)NC(=O)[C@H](CCC(N)=O)NC(=O)[C@H](CC(C)C)NC(=O)[C@H](Cc1ccccc1)NC(=O)[C@H](Cc1c[nH]cn1)NC(=O)[C@H](C)NC(=O)[C@H](CC(C)C)NC(=O)[C@H](CCCNC(=N)N)NC(=O)[C@H](CCC(=O)O)NC(=O)[C@@H](NC(=O)[C@H](C)NC(=O)[C@@H]1CSSC[C@H](NC(=O)[C@H](CCCNC(=N)N)NC(=O)CC[C@H](NC(=O)CCCCCCCCCCCCCCCCCCC(=O)O)C(=O)O)C(=O)NCC(=O)N[C@@H]([C@@H](C)O)C(=O)N[C@@H](C)C(=O)N[C@@H]([C@@H](C)O)C(=O)N1)[C@@H](C)O` [Compound 28, [19CD]-isoGlu-R-C( )-GTAT-C( )-ATERLAHFLQRSSF-Gly(Me)-A-Ile(Me)-LSSTEVGSST-Hyp-NH2] ({C20 diacid-γGlu}-RCGTATCATERLAHFLQRSSF[Sar]A[NMeI]LSSTEVGSST[Hyp]-NH2; disulfide 2-7), for which, in data set [1], the “Normalized purity … pH 4” value is reported as “A (A = >90%)”; the “Normalized purity … pH 6” value is “B (B = 70-90%)”; the “Normalized purity … pH 7.5” value is “B (B = 70-90%)”; the “Normalized purity … pH 9” value is “B (B = 70-90%)”. Further, the “CI/F (apparent clearance values)” value in data set [2] came out at 0.0128. For the same compound, in data set [3], the “Fibrillation pH 4.0 (Ac)” value is “FND”, the “Fibrillation pH 7.0 (His)” value is listed as “FND” and the “Fibrillation pH 7.0 (Phos.)” value is given as “FND”.
